Assay results taken from patent US5506102A (priority 1993, dated 1996).

Target: T1, PR-A (Homo sapiens, UniProt P06401)
T1 sequence (P06401 165-933): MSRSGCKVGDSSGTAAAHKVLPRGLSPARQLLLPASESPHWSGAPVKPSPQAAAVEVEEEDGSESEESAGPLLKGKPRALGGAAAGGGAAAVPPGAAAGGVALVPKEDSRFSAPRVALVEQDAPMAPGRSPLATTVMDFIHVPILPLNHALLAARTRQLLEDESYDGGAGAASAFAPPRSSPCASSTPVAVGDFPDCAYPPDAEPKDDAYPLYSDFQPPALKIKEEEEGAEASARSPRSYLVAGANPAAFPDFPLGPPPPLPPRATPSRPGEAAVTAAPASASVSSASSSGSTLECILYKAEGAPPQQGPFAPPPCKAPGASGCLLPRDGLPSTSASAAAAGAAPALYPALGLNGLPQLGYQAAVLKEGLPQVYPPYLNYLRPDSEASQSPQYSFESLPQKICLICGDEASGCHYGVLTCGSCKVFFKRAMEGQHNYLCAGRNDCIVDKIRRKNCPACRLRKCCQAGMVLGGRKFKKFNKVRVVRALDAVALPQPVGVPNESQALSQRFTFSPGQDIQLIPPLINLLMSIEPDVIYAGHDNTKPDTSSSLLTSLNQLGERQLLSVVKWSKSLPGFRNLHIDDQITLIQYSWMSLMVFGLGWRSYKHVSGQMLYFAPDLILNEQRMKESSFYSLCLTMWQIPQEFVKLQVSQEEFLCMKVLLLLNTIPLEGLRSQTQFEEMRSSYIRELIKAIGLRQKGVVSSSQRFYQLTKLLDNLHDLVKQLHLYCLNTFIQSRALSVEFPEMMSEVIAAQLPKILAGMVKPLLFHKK
Test: PR-A transactivation of PRE2 tk-LUC
Type: cell-based
Set-up: PRE2 tk-LUC in CV-1
Experimental: FIGS. 4A-4B are a series of graphs showing CV-1 ([…]) or HepG2 (FIG. 4B) cells that were transiently transfected with either […] of phPR-B or phPR-A alone, or phPR-B in the presence of increasing concentrations of phPR-A, together with 5 µg/ml of the PRE2 tk-LUC reporter and 5 µg/ml of pCH110 as an internal control. HeLa cells (FIG. 4C) were transfected with either phPR-B or phPR-A together with 5 µg/ml of the pTAT2950 reporter and 5 µg/ml of pCH110 as an internal control. […] The relative luciferase activity is calculated by dividing the normalized luciferase value at a given point by that obtained in the absence of transfected receptor or ligand. The data shown represent the mean +/- average deviation from the mean of triplicate estimations;
Both reporter plasmids were digested with XhoI and HindIII restriction enzymes and a 6.7 Kb fragment from MMTV-LUC and a 0.12 Kb fragment from PRE2 tk-CAT were isolated and ligated, resulting in a plasmid called PRE2 tk-LUC.
Cells were seeded in 12-well, 96-well or 10 cm tissue culture plates. […] 20 μg of DNA/ml of transfection buffer were used in each transfection reaction. […]

In the case of `CC(=O)[C@H]1CC[C@H]2[C@@H]3CCC4=CC(=O)CC[C@]4(C)[C@H]3CC[C@]12C` [progesterone], the “PR-A transcriptional activity on PRE2 tk-LUC” value (CV-1, 10^-7 M progesterone, FIG. 4A) is reported as “transcriptionally inactive” and the “PR-A transcriptional activity on PRE2 tk-LUC” value (HepG2, 10^-7 M progesterone, FIG. 4B) is reported as “activator of transcription”.
